The values that follow are results of earlier work, collected in paper PMC10649714, “Development and Identification of Novel α-Glucosidase Inhibitory Peptides from Mulberry Leaves” (Foods, 2023).

α-glucosidase, sequence (P53341 whole entry, the tested form may be a part): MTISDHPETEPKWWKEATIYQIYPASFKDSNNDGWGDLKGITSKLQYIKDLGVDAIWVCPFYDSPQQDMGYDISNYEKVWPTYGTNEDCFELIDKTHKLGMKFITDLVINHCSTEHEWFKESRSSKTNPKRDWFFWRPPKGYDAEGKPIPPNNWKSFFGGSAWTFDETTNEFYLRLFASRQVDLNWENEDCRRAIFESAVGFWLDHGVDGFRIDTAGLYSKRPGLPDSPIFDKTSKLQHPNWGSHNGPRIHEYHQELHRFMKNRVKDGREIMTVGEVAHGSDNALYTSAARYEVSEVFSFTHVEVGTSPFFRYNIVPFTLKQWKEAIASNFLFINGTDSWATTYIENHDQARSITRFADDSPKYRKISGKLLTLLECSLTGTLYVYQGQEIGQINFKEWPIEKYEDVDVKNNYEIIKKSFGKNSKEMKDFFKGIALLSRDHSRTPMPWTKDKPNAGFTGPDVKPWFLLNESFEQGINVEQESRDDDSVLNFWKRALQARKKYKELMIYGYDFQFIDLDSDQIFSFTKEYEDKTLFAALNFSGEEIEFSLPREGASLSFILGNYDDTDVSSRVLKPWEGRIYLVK

One data set addresses α-glucosidase (Saccharomyces cerevisiae, UniProt P53341). The note with it: Binglangjiang buffalo casein peptides. From the text:
Bioactive peptides are composed of 2–20 amino acids. These peptides have no obvious activity in the macromolecular state but show anti-diabetes, anti-hypertension, anti-inflammation, anti-cancer, and other biological activities after degradation. Enzymatic hydrolysis is commonly employed in both research and industrial settings for the preparation of bioactive peptides due to its favorable attributes, including gentle reaction conditions and the ability to effectively regulate the reaction process. […] Although the precise chemical responsible for this benefit is unknown, the ancient Chinese medicinal book Qi Min Yao Shu referenced the effect of mulberry leaf as tr ... || To further verify the synthesis of peptides, in vitro activity tests were carried out. […] […].
As to “FALPQYLK [Binglangjiang buffalo casein peptide]”, the “IC50 ratio of peptide to acarbose” value is on record as “approximately 2.5”. In the case of “RNAVPITPTLNR [Binglangjiang buffalo casein peptide]”, the “IC50 ratio of peptide to acarbose” value is “approximately 2.5”. Take “TKVIPYVRYL [Binglangjiang buffalo casein peptide]”: the “IC50 ratio of peptide to acarbose” value is on record as “approximately 2.5”. Regarding “YLGYLEQLLR [Binglangjiang buffalo casein peptide]”, the “IC50 ratio of peptide to acarbose” value is given as “approximately 2.5”.

Still in this data set, the particulars now being: Ginkgo biloba seed protein peptides.
In the case of “LSMSFPPF [peptide from Ginkgo biloba seed protein]”, the “IC50 ratio of peptide to acarbose” value was 1.22. Consider “MPGPPSD [peptide from Ginkgo biloba seed protein]”, for which the “IC50 ratio of peptide to acarbose” value was 2.54. For the compound “VPKIPPP [peptide from Ginkgo biloba seed protein]”, the “IC50 ratio of peptide to acarbose” value is listed as 3.89.

Staying with this data set, now noted: in words; ref 9 (LDLQR, AGGFR, LDNFR), 11 (RVPSLM, KLPGF), ref 12 (SEDSSEVDIDLGNLG), ref 13 (TTGGKGGK), ref 14 (KETTTIVR).
For the compound AGGFR [wheat germ peptide], the “α-glucosidase inhibition in vitro” value is “excellent”. Turning to “KETTTIVR [spicy wood seed protein-derived peptide]”, the “α-glucosidase inhibition in vitro” value was “excellent”. As for “KLPGF [egg white protein-derived peptide]”, the “α-glucosidase inhibition in vitro” value is “excellent”. Take LDLQR [wheat germ peptide]: the “α-glucosidase inhibition in vitro” value is “excellent”. Consider LDNFR [wheat germ peptide], for which the “α-glucosidase inhibition in vitro” value is recorded as “excellent”. On to “RVPSLM [egg white protein-derived peptide]”, for which the “α-glucosidase inhibition in vitro” value was “excellent”. With “SEDSSEVDIDLGNLG [sericin-derived peptide]”, the “α-glucosidase inhibition in vitro” value is reported as “excellent”. As to “TTGGKGGK [black bean protein-derived peptide]”, the “α-glucosidase inhibition in vitro” value is “excellent”.

The data set is the same for the next values; noted with them: wheat germ peptides.
AGGFR [wheat germ peptide]: the “IC50 ratio of peptide to acarbose” value is given as 2.54.

In the case of LDLQR [wheat germ peptide], the “IC50 ratio of peptide to acarbose” value is 2.52. LDNFR [wheat germ peptide]: the “IC50 ratio of peptide to acarbose” value is recorded as 2.70.

A further data set deals with α-glucosidase (PDB ID: 5ZCE).
Settings: not given
An excerpt: All hydrogen bonds in this complex with a length less than 3.5 Å were considered to make a close contact, and the binding energy obtained was −8.78 kcal/mol. […] Along with other interaction forces, the binding energy was −8.75 kcal/mol. In addition, […] formed seven hydrogen bonds a ...
In the case of `C[C@@H]1O[C@@H](O[C@H]2C(=O)c3c(O)cc(O)cc3O[C@@H]2c2ccc(O)c(O)c2)[C@H](O)[C@H](O)[C@H]1O` [astilbin], the “binding sites with α-glucosidase” value was “ASP-60, ASP-199, HIS-203, GLN-256, and GLN-328”. For `O=c1c(O)c(-c2ccc(O)cc2O)oc2cc(O)cc(O)c12` [morin], the “binding sites with α-glucosidase” value was “ASP-60, ASP-199, HIS-203, GLN-256, and GLN-328”. On to `O=C(CCc1ccc(O)cc1)c1c(O)cc(O[C@@H]2O[C@H](CO)[C@@H](O)[C@H](O)[C@H]2O)cc1O` [trilobatin], for which the “binding sites with α-glucosidase” value was “ASP-60, ASP-199, HIS-203, GLN-256, and GLN-328”.
